Measured values from patent US5292498A, “Method of treating lung disease with uridine triphosphates” (The University of North Carolina At Chapel Hill, priority 1991, dated 1994).

Assays:
[1] = system: normal human nasal epithelium; assay: Bioelectric studies (short circuit current, Isc) of normal human nasal epithelium in Ussing chambers; type: cell-based
Experimental: (§1) Freshly excised human nasal epithelium from normal or cystic fibrosis subjects was grown in primary culture in F-12, hormone-supplemented medium in accordance with known procedures. See R. Wu et al., Am. Rev. Respir. Dis. 132, 311-320 (1985). For [Ca^2+ ]i measurements, cultures were grown on non-fluorescent vitrogen substrates on glass coverslips. Cultures for electrophysiologic studies were grown to confluence on permeable collagen matrix supports (CMS), allowing addition of agonists to the basolateral or apical surface of the epithelial sheet.
Confluent monolayers of primary human nasal epithelium were mounted in modified Ussing chambers in accordance with known procedures. See, e.g., R. Boucher et al., J. Physiol. (Lond.) 405, 77-103 (1988); M. Knowles et al., Science 221, 1067-1070 (1983). The studies described below were performed under short circuit current conditions at 37° C., and in some studies, amiloride was added to the apical bath (10^-4 M) to block transepithelial sodium transport. Changes in transepithelial potential difference (Vt), resistance (Rt) and short circuit current (Isc) were measured in response to addition of various nucleotides. Each cultured preparation was exposed to only one concentration of an agonist on either the basolateral or apical surface to avoid the tachyphylaxis observed in preliminary cumulative dose response studies. To construct concentration-effect relationships of responses to nucleotides, it was assumed that the same maximum response to an agonist could be induced from each tissue culture preparation from the same individual.
The effects of extracellular ATP on normal human nasal epithelium were investigated employing bioelectric measurements of ion transport activity when the nucleotide was applied to either the apical or basolateral membrane. […] In general, the change in Isc induced by application of ATP to the apical or the basolateral side returned to baseline or below within 5 minutes after addition of agonist. […] Apical pretreatment with amiloride (10^-4 M) removes active Na^+ absorption as a component of the Isc so that the residual Isc reflects a Cl^- secretory current (R. Boucher et al., J. Clin. Invest. 78, 1245-1252 (1986); N. Willumsen et al., Am. J. Physiol. 256, C1033-C1044 (1989)).
A concentration-effect relationship was found when ATP was applied to normal human nasal epithelium under basal conditions (data not shown). Comparisons were made between responses of tissues from different donors based on the peak change in Isc following ATP application. The curve describes the mean peak change in Isc in response to log increasing concentrations of ATP applied to the apical or basolateral surface.
Concentration-effect relationships were also found for ATP applied to the apical or basolateral membrane of amiloride-pretreated tissues (data not shown). Again, the nucleotide's effect on ion transport was examined as the mean peak change in Isc after ATP application.
The purinergic receptor subtype(s) linked to regulation of ion transport of human nasal epithelium were characterized by obtaining concentration-effect relationships for a variety of purine and pyrimidine agonists in preparations derived from normal and CF patients. We characterized receptor subtype(s) on the […] surface by measuring nucleotide effect on basal Na^+ transport rates. Because therapies designed to induce Cl^- secretion might best be delivered by the aerosol route, receptor subtype characterization on the apical barrier was performed in the presence of amiloride. The effect of extracellular nucleotides on ion transport is reported as the percent change in Isc from control values when applied to the basolateral or apical surface of the culture. Basal pre-agonist currents were similar for tissues in each concentration group.

[2] = system: CF nasal epithelial cells; assay: Intracellular calcium [Ca^2+ ]i in single CF nasal epithelial cells (Fura-2); type: cell-based, human; conditions: FIG. 6
Experimental: as §1, with “132, 311-320 (1985).” left out
Primary human nasal epithelial cells grown to confluence on vitrogen coated coverslips were loaded with a final concentration of 3 μM Fura-2/AM at 37° C. for 30 minutes. The cells were then washed in NaCl Ringer and mounted in a chamber for measurements of fluorescence. To reduce the rate of leakage of Fura-2 from the cell into the extracellular space and avoid time-dependent compartmentalization of the probe, all measurements of [Ca^2+ ]i were performed at 25° C.
Measurements of [Ca^2+ ]i in single human nasal epithelial cells were obtained with a modular microspectrofluorimeter (SPEX Industries, Inc., Edison, N.J.) attached to a Zeiss Axiovert IM 35 microscope. […] The fluorescent signal from a single cell was measured with a photometer equipped with a pinhole (spot diameter of 3-5 μm) that excluded signals from adjacent cells. […]

## Nc1ncnc2c1ncn2[C@@H]1O[C@H](COP(=O)(O)OP(=O)(O)OP(=O)(O)O)[C@@H](O)[C@H]1O [ATP, adenosine triphosphate]
[1]; 10^-3 M, basolateral membrane (not seen with apical application), basal conditions
  increase in Isc at 10^-3 M: A large increase in Isc
[1]; ATP, apical or basolateral surface, no amiloride
  change in Isc on application to either surface: rapidly stimulated an increase in Isc
[1]; ATP, apical or basolateral, basal conditions
  time for change in Isc to return to baseline or below: ≤ 5 min
[1]; Homo sapiens, read-out: maximum mean % change in Isc
  Emax: 51 ± 8%
[1]; amiloride-pretreated tissues
  Cl^- secretory response: A typical Cl^- secretory response
  change in ion transport, amiloride-pretreated versus basal state: routinely smaller than that observed in tissues in the basal state
[1]; amiloride-treated tissues, apical or basolateral
  character of log concentration-effect curves: sigmoidal in character
[1]; apical surface following amiloride pretreatment, most tissues
  duration of prolonged increase in Isc above baseline: > 10 min
[1]; apical surface, amiloride-pretreated, FIG. 2
  rank order of potency for Cl^- secretion: ATP≥UTP>ATPγS>ADP>2MeSATP>ADPβS
[1]; basal conditions, 10^-7 to 10^-4 M
  effectiveness, apical versus basolateral: approximately equal
[1]; basolateral addition, amiloride-pretreated
  time for ATP induced increase in Isc to return to baseline: ≤ 5 min
[1]; basolateral surface, 10^-3 M drug considered
  character of concentration-effect curve including 10^-3 M: biphasic in character
[1]; basolateral surface, 10^-7 to 10^-4 M
  character of log concentration-effect curve: sigmoidal character
[1]; basolateral surface, FIG. 1
  rank order of potency for increase in Isc: 2MeSATP>UTP≥ATP>ATPγS>ADP>ADPβS
[1]; following ATP
  oscillations in Isc: frequently observed
[2]
  [Ca^2+ ]i response in CF tissues: Increases in [Ca^2+ ]i
